US20060106207A1, “Nucleotide sequences that encode deregulated phosphoglycerate dehydrogenases of coryneform bacteria and method for producing l-serine” (Forschungszentrum Julich GMBH, priority 2002, published 2006)

Key:
Assay type in all cases: biochemical, Corynebacterium glutamicum
[1] = tested on: C-terminal foreshortened 3-phosphoglycerate-dehydrogenase mutant (serAΔ197) in strain 13032pZ1serAΔ197; assay: Inhibition of the overexpressed 3-phosphoglycerate-dehydrogenase by L-serine in strain 13032pZ1serAΔ197
Experimental: (§1) The cells were harvested in the exponential growth phase at OD600 of 5 to 8 and washed twice in 100 mM Tris-HCl, pH 7.5. The cell pellets were then frozen at −20° C. until disintegration. The frozen cell pellets were moisturized on ice and resuspended with 2 ml cold Tris-HCl pH 7.5/10% glycerine in a Brenson sonifier for 10 minutes. Then the cell fragments were separated by centrifugation at 13000 rpm and 4° C. in a Sigma -202 MK centrifuge. The thus obtained supernatant is desalted as a raw extract initially on a PD-10 column using the conditions set by the manufacturer (Amersham Pharmacia Biotech) and then immediately subjected to enzyme measurement. The enzyme test relied upon the photometric detection of the formation of NADH in the reaction of 3-phosphoglycerate and NAD to NADH.
(§2) In the following tests were made whether the C-terminus foreshortened mutant serAΔ197 was no longer blocked by L-serine. For that purpose initially the inhibition of the 3-phosphoglycerate-dehydrogenase of the wild type was investigated in cell-free extracts of C. glutamicum by L-serine based upon the above described enzyme tests. For that purpose to the test bath were added 1, 5 and 10 mM L-serine and were incubated for 5 minutes at 30° C. The reaction was then started by the addition of 15 mM […]. […]

[2] = tested on: Wild Type 3-Phosphoglycerate-Dehydrogenase of C. glutamicum; assay: Inhibition of wild type 3-phosphoglycerate-dehydrogenase by L-serine in cell-free extracts
Experimental: as §1
In the following tests were made whether the C-terminus foreshortened mutant serAΔ197 was no longer blocked by L-serine. For that purpose initially the inhibition of the 3-phosphoglycerate-dehydrogenase of the wild type was investigated in cell-free extracts of C. glutamicum by L-serine based upon the above described enzyme tests. For that purpose to the test bath were added 1, 5 and 10 mM L-serine and were incubated for 5 minutes at 30° C. The reaction was then started by the addition of 15 mM […]. The incubation was necessary in order to be able to detect an inhibition (Table 4). This time dependency of the L-serine inhibition which required several minutes of incubation before a constant level of inhibition was reached has also been described for other 3-phosphoglycerate-dehydrogenase, for example for the purified enzyme of B. subtilis (Saski R. and Pitzer L., 1975, Eur. J. Biochem., 51:415-427).

[3] = tested on: overexpressed 3-phosphoglycerate-dehydrogenase in strain 13032pZ1serA; assay: Inhibition of the overexpressed 3-phosphoglycerate-dehydrogenase by L-serine in strain 13032pZ1serA; conditions: 10 mM L-serine, 5 minutes of incubation at 30° C.
Experimental: as §1, §2

[4] = tested on: 3-phosphoglycerate-dehydrogenase; assay: 3-phosphoglycerate-dehydrogenase enzyme test of strains overexpressing serA or shortened serA alleles
Experimental: The plasmids pziserA, pZiserAΔ79, pZiserAΔ188), pZiserAΔ197, pZiserAΔ205 and pZiserAΔ211 were introduced by electroporation individually into C. glutamicum. As a control, the media plasmid pZ1 was also electroporated into C. glutamicum ATCC 13032. The thus obtained strains 13032pZ1, 13032pZ1serA, 13032pZiserAΔ79, 13032pZiserAΔ188, 13032pZiserAΔ197, 13032pZiserAΔ205 and 13032pZiserAΔ211 were analyzed for overexpression of the 3-phosphoglycerate-dehydrogenase by means of is the 3-phosphoglycerate-dehydrogenase enzyme test. For this purpose the […] strains were activated in complex medium (CgIII=2.5 g NaCl, 10 g bacto-peptone, 10 g bacto-yeast extract, pH 7.4 with 2% glucose) and the minimal medium CGXII and each was separately seeded from the preculture. The medium was identical with the medium CGXII described by Keilhauer et al (Journal of Bacteriology (1993) 175: 5593-5603) but containing additionally 25 μg/mL of kanamycin.
The cells were harvested in the exponential growth phase at OD600 of 5 to 8 and washed twice in 100 mM Tris-HCl, pH 7.5. The cell pellets were then frozen at −20° C. until disintegration. […]
With these test results a specific activity of about 150 mU/mg protein can be determined for the wild-type 3-phosphoglycerate-dehydrogenase activity. […]

Molecule | L-serine inhibition of the foreshortened mutant (in words) [1] | Relative 3-Phosphoglycerate-Dehydrogenase Activity ([1]; 10 mM L-serine, 5 minutes of incubation at 30° C.) [%] | Relative 3-Phosphoglycerate-Dehydrogenase Activity ([2]; 1 mM L-serine, 5 minute incubation at 30° C.) [%] | Relative 3-Phosphoglycerate-Dehydrogenase Activity ([2]; 1 mM L-serine, without incubation) [%] | Relative 3-Phosphoglycerate-Dehydrogenase Activity ([2]; 5 mM L-serine, 5 minute incubation at 30° C.) [%] | Relative 3-Phosphoglycerate-Dehydrogenase Activity ([2]; 5 mM L-serine, without incubation) [%] | Relative 3-Phosphoglycerate-Dehydrogenase Activity ([2]; 10 mM L-serine, 5 minute incubation at 30° C.) [%] | Relative 3-Phosphoglycerate-Dehydrogenase Activity ([2]; 10 mM L-serine, without incubation) [%] | Relative 3-Phosphoglycerate-Dehydrogenase Activity [3] [%] | share of the wild type activity ([4]; compared with overexpressed wild type) | overexpression / increase in specific 3-phosphoglycerate-dehydrogenase activity ([4]; with respect to the wild type protein) [fold]
N[C@@H](CO)C(=O)O [L-Serine, L-serine] | no longer was significantly limited | 95 | 96 | 106 | 82 | 112 | 56 | 104 | 34 |  | 
serAΔ197: serA allele coding for PGD with deletion of 197 C-terminal amino acids, SEQ ID No. 1 / 7 (protein, listed as Corynebacterium glutamicum) MSQNGRPVVLIADKLAQSTVDALGDAVEVRWVDGPNRPELLDAVKEADALLVRSATTVDAEVIAAAPNLKIVGRAGVGLDNVDIPAATEAGVMVANAPTSNIHSACEHAISLLLSTARQIPAADATLREGEWKRSSFNGVEIFGKTVGIVGFGHIGQLFAQRLAAFETTIVAYDPYANPARAAQLNVELVELDELMSRSDFVTIHLPKTKETAGMFDAQLLAKSKKGQIIINAARGGLVDEQALADAIESGHIRGAGFDVYSTEPCTDSPLFKLPQVVVTPHLGASTEEAQDRAGTDVADSVLKALAGEFVADAVNVSGGRVGEEVAVWMDLA |  |  |  |  |  |  |  |  |  | more than 60% | 10
